Measurements taken from US20210038730A1, “PEPTIDE NANOFIBERS” (UNIVERSITY OF PORTSMOUTH HIGHER EDUCATION CORPORATION, priority 2018, published 2021).
Values joined by “and” are separate entries in the source; they are usually repeats but may differ in a detail not shown here. Equal values may be shown once. Read-outs that look alike come from different tables or passages of the source.

Key:
[1] = target: T1, GnRH-R expressed on glioblastoma cells (Homo sapiens, UniProt P30968); assay: Receptor binding by single molecule force spectroscopy; conditions: for koff: read-out: Dissociation Rate (Koff)
T1 construct: GnRH peptides to the GnRH-R expressed on glioblastoma cells; endogenous in cells; host or cells: U-87 MG, UP-007, UP-029, SEBTA-023 glioblastoma cells (living)
T1 sequence (P30968 1-328): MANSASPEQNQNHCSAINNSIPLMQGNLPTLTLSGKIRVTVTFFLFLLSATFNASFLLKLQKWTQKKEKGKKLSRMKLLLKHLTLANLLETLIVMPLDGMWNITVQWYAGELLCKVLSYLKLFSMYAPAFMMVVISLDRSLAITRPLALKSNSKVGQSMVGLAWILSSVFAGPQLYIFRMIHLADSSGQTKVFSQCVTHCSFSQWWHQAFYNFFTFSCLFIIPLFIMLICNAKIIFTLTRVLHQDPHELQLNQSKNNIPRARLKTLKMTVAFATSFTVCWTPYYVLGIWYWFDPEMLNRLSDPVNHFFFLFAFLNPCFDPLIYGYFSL
Protocol: The binding of the GnRH analogues to GnRH-R was assessed using single molecule force spectroscopy (SMFS) and Topography and Recognition (TREC) imaging based on AFM. AFM tips were functionalised with Glu-GnRH, goserelin acetate and […] as a monomer and nanofibers using a previously described method ^9, 10. Silicon nitride (6-20 pN/nm spring constant, Bruker, Mass., USA) and magnetically coated […] tips (Keysight, Calif., USA) were used for SMFS and TREC studies, respectively. […] Subsequently, acetal groups were converted into aldehyde groups by immersing the tips in a 1% (w/v) citric acid solution for 10 minutes. […] Following an incubation of 2 hours, the free aldehyde groups were inactivated by ethanolamine for 10 minutes. AFM tips were washed with PBS three times and stored at 4° C. […] Loading rates were calculated by multiplying the pulling velocity (v) with the effective spring constant (keff). Spring constants were determined by the thermal-noise method. The force-distance curves were acquired using PicoView 1.12 (Agilent Technologies, Inc., California, USA) and analysed in Matlab 8.1 software (MathWorks, Massachusetts, USA). […] Amplitude-distance curves were collected on a glass coverslip to adjust the free oscillation amplitude, and to determine the optimal amplitude reduction value for driving the feedback loop during the imaging. Free amplitude of cantilever oscillation was 30 nm and the excitation frequency was set to 9 kHz.

[2] = test system: hCMEC/D3 cells; assay: Cytotoxicity (MTT) in blood-brain barrier endothelial cells; assay type: cell-based, human; conditions: 3.5-140 μM, 4 and 24 hours
Protocol: Human brain microvessel endothelial cells (hCMEC/D3) and cerebral astrocytes (SC-1800) were maintained in a humidified atmosphere of 5% CO2, and the medium was refreshed every 2-3 days. hCMEC/D3 cells were cultured in endothelial basal medium-2 (EBM-2) supplemented with the EGM-2 Bullet Kit and 2% (v/v) human serum. SC-1800 were cultured in astrocytes basal medium (ABM) supplemented with AGM Bullet Kit and 3% (v/v) human serum. […] Subsequently, complete growth medium (4 mL) was added and cells were centrifuged using a C-28A centrifuge (Boeco, Hamburg, Germany) at 1,000 rpm for 5 minutes. Supernatant was discarded, and pellet was re-suspended in 1 mL of medium. The cell number was counted using Trypan Blue Exclusion Assay in the Countess II Automated Cell Counter (Thermo Scientific, Paisley, UK). hCMEC/D3 and SC-1800 cells were seeded at 20,000 cells/cm^2 in complete medium and allowed to attach overnight. […] Cell metabolic activity was measured after 4 and 24 hours using (3-(4,5)-dimethylthiazol-2-yl)-2,5-diphenyltetrazolium bromide ([…]) assay. […] Subsequently, DMSO (100 μL) was added to dissolve the formazan crystals and absorbance was measured at 570 and 690 nm. Metabolic activity was calculated by subtracting the absorbance values at 690 nm to 570 nm to remove background, and dividing the values by the control to express as a percentage (%) of the control using the equation below. […]

[3] = Enzymatic stability in U-87 MG cell homogenates; conditions: analyte in brackets of label
Protocol: Fresh blood, obtained from adult male Wistar rats, was collected in sterile the 170 I.U. lithium heparin-coated tubes (Vacutainer, BD Bioscience, UK). Blood was centrifuged immediately at 2,000 g for 15 minutes (4° C.) and supernatant was collected and diluted to 50% (v/v) with PBS. Livers and brains were obtained from adult male Wistar rats, and the tissues were blotted to dryness, weighed, sliced into pieces, and homogenised with ice-cold PBS (in 2 mL of buffer g^−1 of tissue) using the glass homogeniser. Then, tissue homogenates were centrifuged at 4,300 g for 1 hour (4° C.) and the supernatants collected. Glioblastoma cell homogenates were prepared using U-87 MG cells. Cells were cultured in Eagle's Minimum Essential Medium (EMEM) supplemented with 10% (v/v) heat-inactivated fetal bovine serum (FBS), 1% (v/v) of non-essential amino acids (NEAA) and 1 mM of sodium pyruvate in T75 flasks with a surface area of 75 cm^2 and maintained in a humidified atmosphere of 5% CO2 at 37° C. Breast cancer cell homogenates were prepared using MDA-MB-231 cells. Cells were cultured in Dulbecco's Modified Eagle Medium (DMEM) supplemented with high levels of glucose (4.5 g/L), 10% (v/v) heat-inactivated fetal bovine serum (FBS), 1% (v/v) of non-essential amino acids (NEAA) and penicillin and streptomycin (500 units/mL) in T75 flasks with a surface area of 75 cm^2 and maintained in a humidified atmosphere of 5% CO2 at 37° C. Media was changed for both cell lines every 3 to 4 days. After reaching confluence, cells were washed twice with Hank's Balanced Salt Solution (HBSS) and incubated with ˜2 mL of TrypLE Enzyme at 37° C. for ˜3 minutes. Then, complete media were added, and cells were centrifuged at 1,000 rpm for 5 minutes in C-28A centrifuge (Boeco, Germany). […] Total protein concentration in the homogenates was determined using the Bradford assay with bovine serum albumin as a standard. […] Samples were vortexed for 15 minutes, centrifuged for 15 minutes at 12,000 rpm, and the supernatants were collected and analysed by RP-HPLC.

[4] = Circular dichroism, temperature and dilution stability of nanofibers; assay type: physicochemical; conditions: CD, 15 to 50° C., dilutions 1:10-1:100
Protocol: Secondary structure was assessed using circular dichroism (CD). TPGnRH solutions (70 or 700 μM) were prepared in aqueous 0.9% sodium chloride and analysed at 20±0.1° C. using Applied Photophysics Pi180 spectropolarimeter (Surrey, UK). For the temperature-dependent studies, the peptide was incubated at a range of temperature (15 to 50° C.) and the spectra were collected at 5° C. intervals. To investigate the effect of dilution, peptide solutions were diluted in 0.9% (w/v) sodium chloride solution at 20° C. Data were collected every 1 nm over the wavelength range of 200-360 nm. X-ray diffraction (XRD) studies were carried out on stalks prepared by suspending drops of TPGnRH solutions (70 or 700 μM) between the ends of the wax-coated capillaries and allowing them to dry at room temperature. Stalks were vertically mounted onto a four-axis goniometer of a FR-E+X-Ray diffractomer (Rigaku, Sevenoaks, UK).

[5] = Enzymatic stability in rat plasma; conditions: 50% (v/v) rat plasma
Protocol: Fresh blood, obtained from adult male Wistar rats, was collected in sterile the 170 I.U. lithium heparin-coated tubes (Vacutainer, BD Bioscience, UK). Blood was centrifuged immediately at 2,000 g for 15 minutes (4° C.) and supernatant was collected and diluted to 50% (v/v) with PBS. Livers and brains were obtained from adult male Wistar rats, and the tissues were blotted to dryness, weighed, sliced into pieces, and homogenised with ice-cold PBS (in 2 mL of buffer g^−1 of tissue) using the glass homogeniser. Then, tissue homogenates were centrifuged at 4,300 g for 1 hour (4° C.) and the supernatants collected. Glioblastoma cell homogenates were prepared using U-87 MG cells. Cells were cultured in Eagle's Minimum Essential Medium (EMEM) supplemented with 10% (v/v) heat-inactivated fetal bovine serum (FBS), 1% (v/v) of non-essential amino acids (NEAA) and 1 mM of sodium pyruvate in T75 flasks with a surface area of 75 cm^2 and maintained in a humidified atmosphere of 5% CO2 at 37° C. Breast cancer cell homogenates were prepared using MDA-MB-231 cells. Cells were cultured in Dulbecco's Modified Eagle Medium (DMEM) supplemented with high levels of glucose (4.5 g/L), 10% (v/v) heat-inactivated fetal bovine serum (FBS), 1% (v/v) of non-essential amino acids (NEAA) and penicillin and streptomycin (500 units/mL) in T75 flasks with a surface area of 75 cm^2 and maintained in a humidified atmosphere of 5% CO2 at 37° C. Media was changed for both cell lines every 3 to 4 days. After reaching confluence, cells were washed twice with Hank's Balanced Salt Solution (HBSS) and incubated with ˜2 mL of TrypLE Enzyme at 37° C. for ˜3 minutes. Then, complete media were added, and cells were centrifuged at 1,000 rpm for 5 minutes in C-28A centrifuge (Boeco, Germany). U-87 MG or MDA-MB-231 cells (˜10×10^6 cells mL^−1) were re-suspended in ice-cold PBS, and homogenised with a 2×5 second pulses with the probe sonicator (UP200S Ultrasonic processor, SciMed, 200 watts, amplitude of 60%). Cell debris were removed by centrifugation at 2,000 rpm for 5 minutes (Jouan B4i, Thermo Scientific, Paisley, UK). Supernatant was collected and stored at −80° C. Total protein concentration in the homogenates was determined using the Bradford assay with bovine serum albumin as a standard. Diluted plasma, tissue or cell homogenates were pre-warmed during ˜30 minutes at 37° C. Peptide stock solutions (Glu-GnRH, goserelin acetate and TPGnRH, 5 mM in PBS, 500 μL) were prepared and added to the homogenate solutions (120 μL). […] Samples were vortexed for 15 minutes, centrifuged for 15 minutes at 12,000 rpm, and the supernatants were collected and analysed by RP-HPLC.

[6] = Enzymatic stability in rat liver homogenates; conditions: 50% (v/v) rat liver homogenates
Protocol: Fresh blood, obtained from adult male Wistar rats, was collected in sterile the 170 I.U. lithium heparin-coated tubes (Vacutainer, BD Bioscience, UK). Blood was centrifuged immediately at 2,000 g for 15 minutes (4° C.) and supernatant was collected and diluted to 50% (v/v) with PBS. Livers and brains were obtained from adult male Wistar rats, and the tissues were blotted to dryness, weighed, sliced into pieces, and homogenised with ice-cold PBS (in 2 mL of buffer g^−1 of tissue) using the glass homogeniser. Then, tissue homogenates were centrifuged at 4,300 g for 1 hour (4° C.) and the supernatants collected. Glioblastoma cell homogenates were prepared using U-87 MG cells. Cells were cultured in Eagle's Minimum Essential Medium (EMEM) supplemented with 10% (v/v) heat-inactivated fetal bovine serum (FBS), 1% (v/v) of non-essential amino acids (NEAA) and 1 mM of sodium pyruvate in T75 flasks with a surface area of 75 cm^2 and maintained in a humidified atmosphere of 5% CO2 at 37° C. Breast cancer cell homogenates were prepared using MDA-MB-231 cells. Cells were cultured in Dulbecco's Modified Eagle Medium (DMEM) supplemented with high levels of glucose (4.5 g/L), 10% (v/v) heat-inactivated fetal bovine serum (FBS), 1% (v/v) of non-essential amino acids (NEAA) and penicillin and streptomycin (500 units/mL) in T75 flasks with a surface area of 75 cm^2 and maintained in a humidified atmosphere of 5% CO2 at 37° C. Media was changed for both cell lines every 3 to 4 days. After reaching confluence, cells were washed twice with Hank's Balanced Salt Solution (HBSS) and incubated with ˜2 mL of TrypLE Enzyme at 37° C. for ˜3 minutes. Then, complete media were added, and cells were centrifuged at 1,000 rpm for 5 minutes in C-28A centrifuge (Boeco, Germany). U-87 MG or MDA-MB-231 cells (˜10×10^6 cells mL^−1) were re-suspended in ice-cold PBS, and homogenised with a 2×5 second pulses with the probe sonicator (UP200S Ultrasonic processor, SciMed, 200 watts, amplitude of 60%). Cell debris were removed by centrifugation at 2,000 rpm for 5 minutes (Jouan B4i, Thermo Scientific, Paisley, UK). Supernatant was collected and stored at −80° C. Total protein concentration in the homogenates was determined using the Bradford assay with bovine serum albumin as a standard. Diluted plasma, tissue or cell homogenates were pre-warmed during ˜30 minutes at 37° C. Peptide stock solutions (Glu-GnRH, goserelin acetate and TPGnRH, 5 mM in PBS, 500 μL) were prepared and added to the homogenate solutions (120 μL). PAX-loaded nanofibers prepared at a ratio of 1:7.36 [PAX:TPGnRH consisting of 3 μmol (2.56 mg mL^−1) of PAX, 22.02 μmol (31.46 mg mL^−1) of TPGnRH], as previously described, and further diluted in PBS to achieve a concentration of 5 mM of TPGnRH and 500 nM of PAX (120 μL) were added to the homogenates. At various time intervals, an aliquot was collected (80 μL) and added to ice-cold ACN (80 μL) to quench the enzymatic activity. Samples were stored at −80° C. for at least 3 hours to maximise protein precipitation. Samples were vortexed for 15 minutes, centrifuged for 15 minutes at 12,000 rpm, and the supernatants were collected and analysed by RP-HPLC.

In the case of `CCCCCCCCCCCCCCCC(=O)Oc1ccc(C[C@H](NC(=O)[C@H](CO)NC(=O)[C@H](Cc2c[nH]c3ccccc23)NC(=O)[C@H](Cc2c[nH]cn2)NC(=O)[C@@H](N)CCC(=O)O)C(=O)NCC(=O)N[C@@H](CC(C)C)C(=O)N[C@@H](CCCNC(=N)N)C(=O)N2CCC[C@H]2C(=O)NCC(N)=O)cc1` [TPGnRH, Tyrosine (O-Palmitoyl)-Glu-GnRH], the “Binding Force” value ([1]; SEBTA-023) is reported as 41.4 ± 3.85 pN, the “Binding Probability” value ([1]; SEBTA-023) is reported as 17.04±3.1% and the koff ([1]; SEBTA-023) is reported as 2.49 ± 0.12 s⁻¹. For the same compound, the “Binding Force” value ([1]; U-87 MG) was 30.00 ± 5.57 pN, the “Binding Probability” value ([1]; U-87 MG) was 13.2±0.9% and 13.2 ± 1.64% and the koff ([1]; U-87 MG) was 0.89 ± 0.1 s⁻¹. The “Binding Force” value ([1]; UP-007) was 50.80 ± 2.88 pN, the “Binding Probability” value ([1]; UP-007) was 20.5±5.8% and the koff ([1]; UP-007) was 1.23 ± 0.13 s⁻¹. For the same compound, the “Binding Force” value ([1]; UP-029) was 46.4 ± 9.45 pN, the “Binding Probability” value ([1]; UP-029) was 9.5±2.5% and 9.51 ± 2.53% and the koff ([1]; UP-029) was 2.03 ± 4.14 s⁻¹. The “cytotoxicity (metabolic activity, MTT)” value [2] was “no cytotoxicity”, the k [3] was 0.1781 min⁻¹ and the “temperatures at which nanofibers are physically stable” value [4] was < 40 °C. The k ([5]; analyte in brackets of label) was 0.0937 min⁻¹, the remaining at 8 h, 4.03 mM ([5]; male, Wistar, rat) was > 80% and the Plateau ([6]; analyte in brackets of label) was 359.3 µg/mL. It also gave a kα ([6]; analyte in brackets of label) of 0.1678 min⁻¹, a kβ ([6]; analyte in brackets of label) of 0.005339 min⁻¹ and a remaining at 8 h, 4.03 mM ([6]; male, Wistar, rat) of ~50%.
